According to patent publication US5750146A, “Translucent collagen formulations with a cytotoxic drug” (Matrix Pharmaceutical, Inc., priority 1995, dated 1998):

Experiments:
Assay type in all cases: physicochemical
collagen = test: Differential Scanning Calorimetry (DSC) scan of collagen transition temperature; conditions: for compatibility of cytotoxic drug with collagen: judged from collagen transition temperature
[1] = optical absorbance at 410 nm (optical opacity) of aqueous collagen compositions, 1 mm pathlength; conditions: 0.25M additive, 6.5 weight percent collagen, pH 9.1, 2° to 8° C., 10 minutes
Procedure: Aliquots (0.5 mL) of each of the compositions were placed in microcuvet having a 1 mm pathlength at different temperatures for 10 minutes wherein the first aliquot was stored at about 12° C, the second aliquot was stored at about 8° C. and the third aliquot was stored at about 4° C. The optical opacity of each sample was then measured at 30 second intervals by determining the absorbance of light (410 nm) through the microcuvet. Lower absorbance in each case corresponds to greater optical clarity at 410 nm.
Three identical aqueous collagen compositions were prepared as above with the exception that the amount of fluorouracil incorporated into the compositions were varied to be 16.65 mg/mL, 22.2 mg/mL and 33.3 mg/mL respectively. The resulting compositions were stored at 4° C. as aliquots (0.5 mL) in microcuvets having a 1 mm pathlength for 10 minutes and the optical opacity of each sample was measured at 30 second intervals by determining the absorbance of light (410 nm) through the microcuvet. Lower absorbance in each case corresponds to greater optical clarity at 410 nm.
Both compositions were then stored at from about 2° to 8° C. as aliquots (0.5 mL) in microcuvets having a 1 mm pathlength for 10 minutes and the optical opacity of each sample was measured at 15 second intervals by determining the absorbance of light (410 nm) through the microcuvet. […]

[2] = optical appearance of aqueous collagen compositions on storage
Procedure: Mixing was conducted by repeated transfers between two syringes connected by a mixing adapter. […] The results of these scans are illustrated in FIG. 5 and 6, respectively.
A second study was conducted to determine the amount of fluorouracil required to effect clarification on an opaque aqueous collagen composition. Specifically, aqueous collagen compositions were formulated to contain collagen (21.7 mg/mL), 0.033M phosphate buffer and varying amounts of fluorouracil. Each composition was then stored at about 2° C. to 8° C. for 17 days and the optical appearance of the composition measured periodically.
Specifically, in this example, the concentration of methotrexate in the collagen composition was varied and the collagen compositions were stored for 1 day and 3 days at either at 2° C. to 8° C. or at room temperature. The results at 3 days were the same as those found after 1 day and, accordingly, Table III below sets forth only the results from day 1.
A second study was conducted by preparing collagen compositions having 0.033M potassium phosphate buffer and […]. The pH of the solution was adjusted by the addition of HCl or NaOH as necessary to modify the pHs of the compositions to approximately 5, 7, 8 and 9. The compositions were stored at either room temperature or at 2-8° C. The optical appearance of these compositions was evaluated at 1 and 11 days after storage.

SMILES | cross-linking to collagen (increase in transition temperature over time) (collagen; room temperature, up to 8 hours) | effect of additive on clarifying the collagen composition (FIG. 11) [1] | clarifying effect on opaque collagen composition ([2]; fluorouracil at 20 mg/mL, 2° C. to 8° C.) | compatibility of cytotoxic drug with collagen (collagen) | effect of refrigeration and high concentration on optical clarity ([2]; refrigeration, high concentrations of methotrexate)
N.N.[Cl][Pt][Cl] [cisplatin, cis-diamino dichlororplatinum (II)] | cross-linking (i.e., covalent bonding) of the cisplatin to the collagen |  |  |  | 
O=c1[nH]cc(F)c(=O)[nH]1 [fluorouracil, 5-fluoro-2,4-(1H, 3H)pyrimidinedione] |  | only fluorouracil has any significant effect on clarifying the collagen composition | some clarifying affect on the opaque collagen composition | compatible cytotoxic drug | 
CN(Cc1cnc2nc(N)nc(N)c2n1)c1ccc(C(=O)N[C@@H](CCC(=O)O)C(=O)O)cc1 [methotrexate] |  |  |  | compatible cytotoxic drug | both refrigeration and high concentrations of methotrexate are effective in effecting optical clarity
